Measured values: US20090318424A1, “NOVEL COMPOUNDS” (priority 2006, published 2009)

For `CCN(CC)C(=O)c1ccc(C)c(-c2nc(N3CCN(C)CC3)nc3c2CNC(=O)N3c2c(F)cccc2F)c1` [Example 162, 3-[8-(2,6-difluorophenyl)-2-(4-methyl-1-piperazinyl)-7-oxo-5,6,7,8-tetrahydropyrimido[4,5-d]pyrimidin-4-yl]-N,N-diethyl-4-methylbenzamide], which melting point is on record?
The melting point was 201 to 205 °C (dec.).

For `Cc1ccc(C(=O)NCc2ccccc2)cc1-c1nc(N2CCC(N(C)C(=O)OC(C)(C)C)CC2)nc2c1CNC(=O)N2c1c(F)cccc1F` [Example 147, 1,1-dimethylethyl {-[8-(2,6-difluorophenyl)-4-(2-methyl-5-{[(phenylmethyl)amino]carbonyl}phenyl)-7-oxo-5,6,7,8-tetrahydropyrimido[4,5-d]pyrimidin-2-yl]-4-piperidinyl}methylcarbamate], which melting point is on record?
Its melting point is 146 to 150 °C (dec.).

For `CNC(=O)c1ccc(C)c(-c2nc(N3CCN(C)CC3)nc3c2CNC(=O)N3c2c(F)cccc2F)c1` [Example 169, 3-[8-(2,6-difluorophenyl)-2-(4-methyl-1-piperazinyl)-7-oxo-5,6,7,8-tetrahydropyrimido[4,5-d]pyrimidin-4-yl]-N,4-dimethylbenzamide], which melting point is on record?
The melting point was 164 to 168 °C (dec.).

Which melting point does the source give for `CNC(=O)c1ccc(C)c(-c2nc(NCCCNC(C)(C)C)nc3c2CNC(=O)N3c2c(F)cccc2F)c1` [Example 170, 3-[8-(2,6-difluorophenyl)-2-({3-[(1,1-dimethylethyl)amino]propyl}amino)-7-oxo-5,6,7,8-tetrahydropyrimido[4,5-d]pyrimidin-4-yl]-N,4-dimethylbenzamide] here?
Its melting point is 166 to 170 °C (dec.).

For `Cc1ccc(C(=O)NCc2ccccc2)cc1-c1nc(NC2CC(C)(C)NC(C)(C)C2)nc2c1CNC(=O)N2c1c(F)cccc1F` [Example 16, 3-{8-(2,6-Difluorophenyl)-7-oxo-2-[(2,2,6,6-tetramethyl-4-piperidinyl)amino]-5,6,7,8-tetrahydropyrimido[4,5-d]pyrimidin-4-yl}-4-methyl-N-(phenylmethyl)benzamide], which melting point is on record?
The melting point was 160 to 165 °C (dec.).

For `CCOc1nc(-c2cc(NC(=O)c3ccsc3)ccc2C)c2c(n1)N(c1c(F)cccc1F)C(=O)NC2` [Example 13, N-{3-[8-(2,6-difluorophenyl)-2-(ethyloxy)-7-oxo-5,6,7,8-tetrahydropyrimido[4,5-d]pyrimidin-4-yl]-4-methylphenyl}-3-thiophenecarboxamide], which melting point is on record?
The melting point was 199 to 202 °C (dec.).

Which melting point does the source give for `Cc1ccc(C(=O)N(C)C)cc1-c1nc(NC2CCN(C)CC2)nc2c1CNC(=O)N2c1c(F)cccc1F` [Example 155, 3-{8-(2,6-difluorophenyl)-2-[(1-methyl-4-piperidinyl)amino]-7-oxo-5,6,7,8-tetrahydropyrimido[4,5-d]pyrimidin-4-yl}-N,N,4-trimethylbenzamide] here?
Its melting point is 163 to 165 °C.

Which melting point does the source give for `CCOc1nc(-c2cc(NC(=O)c3ccc(C)c(F)c3)ccc2C)c2c(n1)N(c1c(F)cccc1F)C(=O)NC2` [Example 25, N-{3-[8-(2,6-difluorophenyl)-2-(ethyloxy)-7-oxo-5,6,7,8-tetrahydropyrimido[4,5-d]pyrimidin-4-yl]-4-methylphenyl}-3-fluoro-4-methylbenzamide] here?
The melting point was 257.3 to 262.5 °C.

With `Cc1ccc(C(=O)NCc2ccccc2)cc1-c1nc(NC2CCNCC2)nc2c1CNC(=O)N2c1c(F)cccc1F` [21(b), 3-[8-(2,6-Difluorophenyl)-7-oxo-2-(4-piperidinylamino)-5,6,7,8-tetrahydropyrimido[4,5-d]pyrimidin-4-yl]-4-methyl-N-(phenylmethyl)benzamide] as the molecule, how does the melting point read?
The melting point was 172 to 176 °C (dec.).

For `CCN(CC)C(=O)c1ccc(C)c(-c2nc(N(C)CCCN(C)C)nc3c2CNC(=O)N3c2c(F)cccc2F)c1` [Example 161, 3-{8-(2,6-difluorophenyl)-2-[[3-(dimethylamino)propyl](methyl)amino]-7-oxo-5,6,7,8-tetrahydropyrimido[4,5-d]pyrimidin-4-yl}-N,N-diethyl-4-methylbenzamide], which melting point is on record?
The melting point was 106 to 108 °C.

Which melting point does the source give for `CNC(=O)c1ccc(C)c(-c2nc(NC3CCN(C)CC3)nc3c2CNC(=O)N3c2c(F)cccc2F)c1` [Example 173, 3-{8-(2,6-difluorophenyl)-2-[(1-methyl-4-piperidinyl)amino]-7-oxo-5,6,7,8-tetrahydropyrimido[4,5-d]pyrimidin-4-yl}-N,4-dimethylbenzamide] here?
The melting point was 205 to 209 °C (dec.).

With `CNC(=O)c1ccc(C)c(-c2nc(NCCN(C)C)nc3c2CNC(=O)N3c2c(F)cccc2F)c1` [Example 163(c), 3-(8-(2,6-difluorophenyl)-2-{[2-(dimethylamino)ethyl]amino}-7-oxo-5,6,7,8-tetrahydropyrimido[4,5-d]pyrimidin-4-yl)-N,4-dimethylbenzamide] as the molecule, how does the melting point read?
The melting point was 155 to 158 °C (dec.).

For `CNCCNc1nc(-c2cc(C(=O)NCc3ccccc3)ccc2C)c2c(n1)N(c1c(F)cccc1F)C(=O)NC2` [19(b), 3-(8-(2,6-Difluorophenyl)-2-{[2-(methylamino)ethyl]amino}-7-oxo-5,6,7,8-tetrahydropyrimido[4,5-d]pyrimidin-4-yl)-4-methyl-N-(phenylmethyl)benzamide], which melting point is on record?
The melting point was 157 to 161 °C.

Which melting point does the source give for `Cc1ccc(C(=O)N(C)C)cc1-c1nc(NCCN(C)C)nc2c1CNC(=O)N2c1c(F)cccc1F` [Example 152, 3-(8-(2,6-difluorophenyl)-2-{[2-(dimethylamino)ethyl]amino}-7-oxo-5,6,7,8-tetrahydropyrimido[4,5-d]pyrimidin-4-yl)-NN,4-trimethylbenzamide] here?
The melting point was 138 to 142 °C.

With `Cc1ccc(C(=O)N(C)C)cc1-c1nc(NCCNC(C)C)nc2c1CNC(=O)N2c1c(F)cccc1F` [Example 153, 3-[8-(2,6-difluorophenyl)-2-({2-[(1-methylethyl)amino]ethyl}amino)-7-oxo-5,6,7,8-tetrahydropyrimido[4,5-d]pyrimidin-4-yl]-N,N,4-trimethylbenzamide] as the molecule, how does the melting point read?
Its melting point is 130 to 133 °C.

For `CCN(CC)C(=O)c1ccc(C)c(-c2nc(NCCN(C)C)nc3c2CNC(=O)N3c2c(F)cccc2F)c1` [156(c), 3-(8-(2,6-difluorophenyl)-2-{[2-(dimethylamino)ethyl]amino}-7-oxo-5,6,7,8-tetrahydropyrimido[4,5-d]pyrimidin-4-yl)-N,N-diethyl-4-methylbenzamide], which melting point is on record?
The melting point was 125 to 127 °C.

With `Cc1ccc(C(=O)NCc2ccccc2)cc1-c1nc(NCCN(C)C)nc2c1CNC(=O)N2c1c(F)cccc1F` [Example 18, 3-(8-(2,6-Difluorophenyl)-2-{[2-(dimethylamino)ethyl]amino}-7-oxo-5,6,7,8-tetrahydropyrimido[4,5-d]pyrimidin-4-yl)-4-methyl-N-(phenylmethyl)benzamide] as the molecule, how does the melting point read?
The melting point was 148 to 150 °C.

Which melting point does the source give for `Cc1ccc(C(=O)N(C)C)cc1-c1nc(N2CCN(C)CC2)nc2c1CNC(=O)N2c1c(F)cccc1F` [149(c), 3-[8-(2,6-difluorophenyl)-2-(4-methyl-1-piperazinyl)-7-oxo-5,6,7,8-tetrahydropyrimido[4,5-d]pyrimidin-4-yl]-N,N,4-trimethylbenzamide] here?
Its melting point is 159 to 162 °C.
